Measured values: ChEMBL document CHEMBL3885861, “Open TG-GATES”

Organism: Rattus norvegicus
Assay: Open TG-GATES - Regimen: Single
Assay type: toxicity, organism-based, Sprague-Dawley
Set-up: regimen Single, gender Male, age 6 weeks
Conditions: in vivo, po, 2 mg/kg, route gavage, dose level Middle; for APTT / Bas / Eos / Fbg / Hb / Ht / Lym / MCH / MCHC / MCV / Mono / Neu / PT / Plat / RBC / Ret / WBC: tissue Blood; for KIDNEY_L / KIDNEY_R / KIDNEY_TOTAL: tissue Kidney; for LIVER: tissue Liver; for A/G / ALP / ALT / AST / BUN / CRE / Ca / Cl / DBIL / GLC / IP / K / LDH / Na / PL / RALB / TBIL / TC / TG / TP / gamma-GTP: tissue Plasma

With `O=NN(CCCl)C(=O)NC1CCCCC1` [LOMUSTINE] the TERMINAL_BW (3 h) was 208.7 g, the APTT (3 h) was 16.4 s and the Bas (3 h) was 0%. The Eos (3 h) was 0.4%, the Fbg (3 h) was 227.8 mg/dL and the Hb (3 h) was 12.8 g/dL. It also gave a Ht (3 h) of 38.3%, a Lym (3 h) of 81.8% and an MCH (3 h) of 22.5 pg. It also gave an MCHC (3 h) of 33.4%, an MCV (3 h) of 67.4 fL and a Mono (3 h) of 7.2%. The Neu (3 h) was 10.2%, the PT (3 h) was 11.6 s and the Plat (3 h) was 102.8 x10_4/uL. It also gave an RBC (3 h) of 568.2 x10_4/ul, a Ret (3 h) of 9.5% and a WBC (3 h) of 127.7 x10_2/uL. The KIDNEY_L (3 h) was 0.9 g, the KIDNEY_R (3 h) was 1 g and the KIDNEY_TOTAL (3 h) was 1.9 g. The LIVER (3 h) was 10 g, the A/G (3 h) was 1.8 and the ALP (3 h) was 890.2 IU/L. The ALT (3 h) was 35.6 IU/L, the AST (3 h) was 70.8 IU/L and the BUN (3 h) was 14.2 mg/dL. It also gave a CRE (3 h) of 0.5 mg/dL, a Ca (3 h) of 11.4 mg/dL and a Cl (3 h) of 104.8 meq/L. For the same compound, the DBIL (3 h) was 0.052 mg/dL, the GLC (3 h) was 187.6 mg/dL and the IP (3 h) was 9.9 mg/dL. It also gave a K (3 h) of 4.6 meq/L, an LDH (3 h) of 104.6 IU/L and a Na (3 h) of 139.4 meq/L. For the same compound, the PL (3 h) was 127.4 mg/dL, the RALB (3 h) was 3.5 g/dL and the TBIL (3 h) was 0.3 mg/dL. The TC (3 h) was 75.8 mg/dL, the TG (3 h) was 41.4 mg/dL and the TP (3 h) was 5.5 g/dL. For the same compound, the gamma-GTP (3 h) was 1.4 IU/L, the TERMINAL_BW (6 h) was 201.7 g and the APTT (6 h) was 16.8 s. The Bas (6 h) was 0%, the Eos (6 h) was 0.2% and the Fbg (6 h) was 217.4 mg/dL. For the same compound, the Hb (6 h) was 13.5 g/dL, the Ht (6 h) was 40.4% and the Lym (6 h) was 84.2%. For the same compound, the MCH (6 h) was 21.9 pg, the MCHC (6 h) was 33.4% and the MCV (6 h) was 65.6 fL. The Mono (6 h) was 4.2%, the Neu (6 h) was 11.4% and the PT (6 h) was 12.2 s. For the same compound, the Plat (6 h) was 103.8 x10_4/uL, the RBC (6 h) was 616.2 x10_4/ul and the Ret (6 h) was 9.4%. The WBC (6 h) was 137.8 x10_2/uL, the KIDNEY_L (6 h) was 1 g and the KIDNEY_R (6 h) was 1 g. For the same compound, the KIDNEY_TOTAL (6 h) was 1.9 g, the LIVER (6 h) was 8.7 g and the A/G (6 h) was 1.9. The ALP (6 h) was 941.6 IU/L, the ALT (6 h) was 33.6 IU/L and the AST (6 h) was 66.8 IU/L. The BUN (6 h) was 11.6 mg/dL, the CRE (6 h) was 0.5 mg/dL and the Ca (6 h) was 11 mg/dL. The Cl (6 h) was 104.2 meq/L, the DBIL (6 h) was 0.02 mg/dL and the GLC (6 h) was 187.6 mg/dL. The IP (6 h) was 10.8 mg/dL, the K (6 h) was 5 meq/L and the LDH (6 h) was 80.8 IU/L. It also gave a Na (6 h) of 141.2 meq/L, a PL (6 h) of 140 mg/dL and an RALB (6 h) of 3.5 g/dL. The TBIL (6 h) was 0.3 mg/dL, the TC (6 h) was 79.6 mg/dL and the TG (6 h) was 49.2 mg/dL. It also gave a TP (6 h) of 5.5 g/dL, a gamma-GTP (6 h) of 1.8 IU/L and a TERMINAL_BW (9 h) of 198 g. It also gave an APTT (9 h) of 17 s, a Bas (9 h) of 0% and an Eos (9 h) of 0.8%. It also gave a Fbg (9 h) of 226 mg/dL, a Hb (9 h) of 13.1 g/dL and a Ht (9 h) of 40.1%. The Lym (9 h) was 78.6%, the MCH (9 h) was 21.4 pg and the MCHC (9 h) was 32.7%. The MCV (9 h) was 65.6 fL, the Mono (9 h) was 6.2% and the Neu (9 h) was 14.6%. It also gave a PT (9 h) of 12.2 s, a Plat (9 h) of 103.3 x10_4/uL and an RBC (9 h) of 611.2 x10_4/ul. It also gave a Ret (9 h) of 8.8%, a WBC (9 h) of 71.6 x10_2/uL and a KIDNEY_L (9 h) of 0.9 g. The KIDNEY_R (9 h) was 0.9 g, the KIDNEY_TOTAL (9 h) was 1.8 g and the LIVER (9 h) was 8.4 g. For the same compound, the A/G (9 h) was 2.3, the ALP (9 h) was 731 IU/L and the ALT (9 h) was 28.6 IU/L. For the same compound, the AST (9 h) was 67.6 IU/L, the BUN (9 h) was 11 mg/dL and the CRE (9 h) was 0.5 mg/dL. It also gave a Ca (9 h) of 10.7 mg/dL, a Cl (9 h) of 105.4 meq/L and a DBIL (9 h) of 0.024 mg/dL. The GLC (9 h) was 191 mg/dL, the IP (9 h) was 10.8 mg/dL and the K (9 h) was 5 meq/L. The LDH (9 h) was 93.8 IU/L, the Na (9 h) was 139.4 meq/L and the PL (9 h) was 136.2 mg/dL. It also gave an RALB (9 h) of 3.9 g/dL, a TBIL (9 h) of 0.3 mg/dL and a TC (9 h) of 81.6 mg/dL. For the same compound, the TG (9 h) was 30.8 mg/dL, the TP (9 h) was 5.5 g/dL and the gamma-GTP (9 h) was 1.8 IU/L. It also gave a TERMINAL_BW (24 h) of 218.8 g, an APTT (24 h) of 16.9 s and a Bas (24 h) of 0%. The Eos (24 h) was 0.4%, the Fbg (24 h) was 207.4 mg/dL and the Hb (24 h) was 12.8 g/dL. The Ht (24 h) was 38.5%, the Lym (24 h) was 80.2% and the MCH (24 h) was 22.3 pg. It also gave an MCHC (24 h) of 33.3%, an MCV (24 h) of 67.1 fL and a Mono (24 h) of 7%. It also gave a Neu (24 h) of 12.6%, a PT (24 h) of 12.1 s and a Plat (24 h) of 96.4 x10_4/uL. It also gave an RBC (24 h) of 574.2 x10_4/ul, a Ret (24 h) of 9.1% and a WBC (24 h) of 121.6 x10_2/uL. The KIDNEY_L (24 h) was 1 g, the KIDNEY_R (24 h) was 1 g and the KIDNEY_TOTAL (24 h) was 2 g. For the same compound, the LIVER (24 h) was 11.1 g, the A/G (24 h) was 2.3 and the ALP (24 h) was 839.8 IU/L. For the same compound, the ALT (24 h) was 38.8 IU/L, the AST (24 h) was 62.4 IU/L and the BUN (24 h) was 16.8 mg/dL. The CRE (24 h) was 0.5 mg/dL, the Ca (24 h) was 11.3 mg/dL and the Cl (24 h) was 104.4 meq/L. It also gave a DBIL (24 h) of 0.038 mg/dL, a GLC (24 h) of 195.8 mg/dL and an IP (24 h) of 8.7 mg/dL. The K (24 h) was 4.8 meq/L, the LDH (24 h) was 87.4 IU/L and the Na (24 h) was 137.8 meq/L. For the same compound, the PL (24 h) was 157.2 mg/dL, the RALB (24 h) was 4 g/dL and the TBIL (24 h) was 0.3 mg/dL. The TC (24 h) was 86.8 mg/dL, the TG (24 h) was 80.6 mg/dL and the TP (24 h) was 5.7 g/dL. The gamma-GTP (24 h) was 1.4 IU/L.
